Reference: article PMC10704437, “Sterol-activated amyloid beta fibril formation” (The Journal of Biological Chemistry, 2023)
Several values for one entry are separate records, joined by “and”; a condition that tells them apart may be missing. Equal entries are not always repeated. Where two headings read alike, the source gives them in different places.

Assays:
Aβ42 [1] = molecular target: T1, Aβ42 (Homo sapiens, UniProt P05067); assay: Aβ42 fibril formation monitored by ThT fluorescence, NEF model fitting; format: biochemical; conditions: for Nucleation rate constant, NEF model: NEF fit of fibril formation progress curves; for Nucleation rate constant, NEF model / Elongation rate constant, forward / Elongation rate constant, reverse / Fragmentation rate constant: Aβ42 1.0 μM, ligand at saturation; for Elongation rate constant, forward / Elongation rate constant, reverse / Fragmentation rate constant: NEF fit; for increase of nucleation rate constant relative to the unliganded peptide: from NEF nucleation rate constants
T1 construct: Small red spheres mark the Aβ42 peptide C-terminal residue, A42; purchased Sigma-Aldrich Corp
From the text: Reactions were initiated by the addition of ligand (at saturation) or buffer (control) to a fresh solution of Aβ42 and ThT (see Fig. 3 Legend). Such progress curves are often fit using a generalized sigmoidal function and compared on the basis of lag-time length and elongation-phase slope. Here, progress curves are fit numerically to the Nucleation-Elongation-Fragmentation (NEF) model ([51], [52]), using Copasi ([53]). Numerical modeling allows one to assess whether a particular mechanism adequately predicts experimental behavior and provides rate constants for the steps of the mechanism that can be compared across peptide•ligand combinations to identify where and to what extent ligands induce change.
Figure 3 Formation of CH•, CS•, and unliganded Aβ42fibrils.A, fibril formation. Fibril formation was monitored via the fluorescence increase (λex = 450 nm, λem = 482 nm) associated with the binding of ThT, which binds Aβ oligomers ≥5-mers. […] C. Progress curves were performed in triplicate, averaged, and fit numerically using the NEF polymerization model (see Results and discussion).
The NEF model assumes a slow, energetically unfavorable event generates a polymerization nucleus that rapidly adds monomers (at the elongation rate) to form oligomers. The reaction accelerates in a geometric fashion as oligomer fragmentation produces new nuclei. The tenets of the model are embodied in Equations (1), (2), (3), which form the basis of the Copasi model ([53]).(1) 2m⇆knucrevknucforn (2) m+n⇆kelrevkelforo+n (3) o→kfragn where m is monomer concentration, n is the concentration of surfaces capable of adding monomer, and o is the concentration of peptides that are in the interior of the polymer and thus cannot add monomers. knuc, kel, and kfrag are the nucleation, elongation, and fragmentation rate constants.
Fibril formation was monitored via the binding-induced change in ThT fluorescence (λex = 450 nm, λem = 482 nm) ([76]). […] C. Reagents (peptide, CH, CS, and ThT) were prepared immediately prior to use. CH and CS were solubilized in neat DMSO. Progress curves were determined in triplicate, and data were fit using the Nucleation-Fragmentation-Elongation (NEF) model (see Results and discussion).

Aβ42 [2] = molecular target: T1, Aβ42; assay: Sterol binding to Aβ42, pre-steady-state stopped-flow fluorescence; conditions: for kon: calculated by dividing koff by Kd; for koff: determined in DHE displacement studies, stopped-flow, 25 °C
Experimental: To establish the rates at which Aβ42•ligand complexes form and dissociate, the rate constants governing the binding reactions were determined. DHE binding was monitored in real time using a stopped-flow fluorimeter via binding-induced changes in DHE fluorescence. The reactions are pseudo first order in [ligand] and kobs was obtained by least-squares fitting progress curves to a single-exponential equation ([44], [45]). kobs values were determined (in triplicate) at a series of Aβ42 concentrations and the averaged values are plotted versus [Aβ42] in Figure 2B. kon and koff are given by the slope and intercept of the kobs-versus-[Aβ42] plot obtained by linear least-square fitting ([44], [45]). […] The rate constants are compiled in Table 1.
Figure 2 Sterol binding to Aβ42—pre-steady state studies.A, DHE binding. Reactions were monitored via binding induced changes in DHE fluorescence using a stopped-flow fluorimeter (λex = 325, λem > 400 nm). Fluorescence intensity, I, is reported relative to the intensity in the absence of ligand, Io. […] C was rapidly mixed (1:1, v/v) with a solution identical except that Aβ42 was replaced by DHE (40 nM, 2.7 × Kd). The bindingreaction curve shown is the average of five independent progress curves. The averaged curve was a least-squares fit to a single-exponential equation and the resulting best fit (indicated by the red line) yielded kobs. B, DHE kon and koff. kobs values obtained as in Panel A were determined in triplicate at varying Aβ42 concentrations and the averaged values are shown plotted versus [Aβ42]. kon and koff are given by the slope and intercept of a linear least-squares fit of the kobsversus [Aβ42] plot. C and D, CH and CS displacement reactions.
Pre-steady-state binding of sterols to Aβ42 was monitored via the binding-induced change in DHE fluorescence (λex = 325, λem > 400 nm) using an Applied Photophysics SX20 stopped-flow fluorimeter.
Three progress curves (each an average of five independently obtained curves) were collected at five separate Aꞵ42 concentrations. The observed rate constant (kobs) at a given [Aβ42] was obtained by fitting the average of the three curves to a single-exponential equation using Pro-K software ([75]). kon and koff were obtained from the slopes and intercepts predicted by linear least-squares analysis of kobs versus [Aβ42] plots.
C. […] Progress curves were determined in triplicate and koff was obtained by least-squares fitting the averaged curves to a single-exponential equation using Pro-K.

T1 sequence (P05067 672-713 limits assumed): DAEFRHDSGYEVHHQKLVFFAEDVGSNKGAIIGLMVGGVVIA

## CC(C)CCC[C@@H](C)[C@H]1CC[C@H]2[C@@H]3CC=C4C[C@@H](O)CC[C@]4(C)[C@H]3CC[C@]12C [CH, cholesterol]
Aβ42 [1]
  Nucleation rate constant, NEF model: 6.9 (0.2) × 10^−14 nM^−1 s^−1
  Elongation rate constant, forward: 830 (20) μM^−1 s^−1
  Elongation rate constant, reverse: 98 (1) s^−1
  Fragmentation rate constant: 5.6 (0.3) × 10^−11 s^−1
  increase of nucleation rate constant relative to the unliganded peptide: ~49 fold
Aβ42 [2]
  kon: 2.1e+07 M⁻¹ s⁻¹
  koff: 2.5 s⁻¹
Aβ42 [2]; ratio of rate constants, read-out: koff/kon
  Kd: 120 nM

## CC(C)CCC[C@@H](C)[C@H]1CC[C@H]2[C@@H]3CC=C4C[C@@H](OS(=O)(=O)O)CC[C@]4(C)[C@H]3CC[C@]12C [CS, cholesterol 3-sulfate]
Aβ42 [1]; CS•Aβ42 versus CH•Aβ42, calculated using Table 2 nucleation rate constants
  CS/CH nucleation rate constant ratio, experimental: 261 fold and 260 fold
Aβ42 [1]
  Nucleation rate constant, NEF model: 1.8 (0.3) × 10^−11 nM^−1 s^−1
  Elongation rate constant, forward: 860 (60) μM^−1 s^−1
  Elongation rate constant, reverse: 85 (1) s^−1
  Fragmentation rate constant: 4.3 (0.7) × 10^−11 s^−1
  increase of nucleation rate constant relative to the unliganded peptide: ~13,000 fold
Aβ42 [2]
  Kd: 36 nM
  kon: 2.4e+07 M⁻¹ s⁻¹
  koff: 0.88 s⁻¹
